From US20080085889A1, “Amidomethyl-Substituted 1-(Carboxyalkyl) Cyclopentyl-Carbonylamino-Benzazepine-N-Acetic Acid Compounds, Process and Intermediate Products for Their Preparation and Pharmaceutical Compositions Containing Them” (SOLVAY PHARMACEUTICALS GmbH, priority 2003, published 2008)

How the values were obtained:
[1] = biological target: T1, soluble, human recombinant NEP (Homo sapiens, UniProt P08473); experiment: In-vitro investigation of the NEP inhibitory action (fluorescence-quenched Big-ET-1 analogue, HPLC); format: biochemical
T1 construct: soluble, human recombinant NEP; purchased Prof; Crine, University of Montreal, Canada
T1 sequence (P08473 52-750 limits assumed): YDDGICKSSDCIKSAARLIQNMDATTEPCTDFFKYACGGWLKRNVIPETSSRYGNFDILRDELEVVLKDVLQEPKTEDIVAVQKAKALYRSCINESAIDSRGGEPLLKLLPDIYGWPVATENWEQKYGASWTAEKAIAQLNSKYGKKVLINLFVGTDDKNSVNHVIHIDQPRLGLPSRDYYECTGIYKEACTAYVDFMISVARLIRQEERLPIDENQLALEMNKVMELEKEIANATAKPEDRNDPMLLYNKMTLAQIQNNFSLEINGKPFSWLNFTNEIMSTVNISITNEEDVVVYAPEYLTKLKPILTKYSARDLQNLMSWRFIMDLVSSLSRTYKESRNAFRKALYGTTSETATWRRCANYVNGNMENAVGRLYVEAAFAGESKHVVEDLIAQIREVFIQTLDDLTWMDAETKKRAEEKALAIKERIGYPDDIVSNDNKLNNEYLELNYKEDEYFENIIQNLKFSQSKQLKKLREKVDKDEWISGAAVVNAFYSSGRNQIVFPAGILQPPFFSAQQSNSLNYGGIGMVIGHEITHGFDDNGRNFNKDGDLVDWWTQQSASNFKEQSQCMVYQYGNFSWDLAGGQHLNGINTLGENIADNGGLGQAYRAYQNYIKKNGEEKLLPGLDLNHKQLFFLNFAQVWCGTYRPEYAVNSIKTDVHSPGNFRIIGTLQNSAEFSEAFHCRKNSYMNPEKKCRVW
Method: 1. In-Vitro Investigation of the NEP Inhibitory Action of the Substances
In this test, the measure of the inhibitory activity of the substances which was determined was their IC50 value. The IC50 value of a test substance having enzyme-inhibitory activity is that concentration of the test substance at which 50% of the enzymatic activity of the NEP is blocked.
70 μl test buffer, 10 μl enzyme working solution and 10 μl test substance solution were mixed in an Eppendorf vessel and preincubated at 37° C. for 15 minutes (=min.). Then 10 μl substrate stock solution was added and the test batch was incubated for 60 minutes at 37° C. The enzymatic reaction was then ended by 5-minutes' heating to 95° C. After centrifugation (Heraeus Biofuge B, 3 min.), the liquid supernatant was investigated by HPLC in accordance with the following specifications.
The substrate was separated from cleavage products by means of reversed-phase HPLC (CC 125/4 Nucleosil 300/5 C18 RP column with CC 8/4 Nucleosil 100/5 C18 precolumn, from Macherey-Nagel, Düren, Germany). For this, 60 μl of the test mixture was injected into the HPLC sample injection point and the column was then eluted at a flow rate of 1 ml/min with the following gradient:
Mobile Phase B: 100% acetonitrile+0.5M H3PO4
All the peptides were detected by absorption at 214 nm and by fluorescence with an excitation wavelength of 328 nm and an emission wavelength of 393 nm.
Upon enzymatic cleavage of the peptide, the fluorophore (=Mca) and the quencher end up in different peptide fragments, which reduces the effectiveness of the quench. […] The increasing fluorescence signal (corresponds to the area, A) of the HPLC peak of the peptide with the non-quenched Mca fluorophore is used for the further calculations. This signal was compared for samples with (=Ainhib) and without (=Acontrol) test substance of Formula I, and the value “% inhibition” was calculated on the basis of the respective peak areas according to the following formula: % inhibition=100*(1−Ainhib/Acontrol)
All the samples were measured in duplicates and average values were calculated therefrom. A standard inhibitor (10 nM thiorphan) and a solvent control (0.1% DMSO) were likewise measured as quality controls on each run. In this test model the test substances of Formula I listed in the following Table 1 had the IC50 values given below: […]

[2] = biological target: T2, His6-tagged hSEP ectodomain (Homo sapiens, UniProt Q495T6); experiment: In vitro investigation of the hSEP-inhibitory action (fluorescence-quenched Big-ET-1 analogue, HPLC); format: biochemical
T2 construct: His6-tagged hSEP ectodomain; His6; purchased Innogenetics, Ghent, Belgium
T2 sequence (Q495T6 49-779 limits assumed): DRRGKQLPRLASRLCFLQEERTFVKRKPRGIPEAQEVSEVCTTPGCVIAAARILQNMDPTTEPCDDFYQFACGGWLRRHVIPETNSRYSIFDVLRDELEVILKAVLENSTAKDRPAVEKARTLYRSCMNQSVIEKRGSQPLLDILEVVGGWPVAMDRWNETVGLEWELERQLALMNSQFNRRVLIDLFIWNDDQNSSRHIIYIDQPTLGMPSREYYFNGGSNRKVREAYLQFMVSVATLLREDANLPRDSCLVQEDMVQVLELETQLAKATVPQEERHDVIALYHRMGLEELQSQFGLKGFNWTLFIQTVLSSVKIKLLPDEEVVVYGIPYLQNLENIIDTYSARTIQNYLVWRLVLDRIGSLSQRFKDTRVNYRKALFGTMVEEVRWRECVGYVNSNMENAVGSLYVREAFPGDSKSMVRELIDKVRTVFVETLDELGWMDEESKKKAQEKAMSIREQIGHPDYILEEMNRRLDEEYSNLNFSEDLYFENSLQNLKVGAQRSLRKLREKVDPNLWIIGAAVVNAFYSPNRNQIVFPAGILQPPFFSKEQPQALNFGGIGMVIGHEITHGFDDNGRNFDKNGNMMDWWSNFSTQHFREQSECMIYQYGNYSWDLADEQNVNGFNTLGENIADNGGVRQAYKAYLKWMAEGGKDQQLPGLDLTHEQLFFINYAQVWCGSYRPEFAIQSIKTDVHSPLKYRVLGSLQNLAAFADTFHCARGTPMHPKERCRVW
Method: 2. In Vitro Investigation of the hSEP-Inhibitory Action of the Substances
In this test, the measure of the inhibitory activity of the substances which was determined was their IC50 value. The IC50 value of a test substance having enzyme-inhibitory activity is that concentration of the test substance at which 50% of the enzymatic activity of the hSEP is blocked.
The test and the HPLC procedure were carried out analogously to the manner set forth above for determining the in vitro inhibitory action of the test substances on NEP. 10 nM phosphoramidon served as standard inhibitor in the HPLC procedure. In this test model the test substances of Formula I listed in the following Table 2 had the IC50 values given below: […]

[3] = system: formation of ET-1 from Big-ET-1; experiment: In vivo inhibition of the Big-ET-1-induced blood pressure increase in anaesthetised rats, i.v. single dose; parameters: species or system Rats (Sprague-Dawley); conditions: Rattus norvegicus, iv, 10 μmol/kg, 5 min before 0.5 nmol/kg Big-ET-1, negative values indicate inhibition, read-out: % substance-related inhibition of the maximum Big-ET effect on SAP vs. control
Description: 3. In Vivo Investigation of the Inhibitory Action of the Substances on the Formation of ET-1 from Big-ET-1 in Rats
ET-1 is an endogenous substance with strong vasoconstrictive effect. An increase in the ET-1 level results in an increase in blood pressure. Upon infusion of Big-ET-1, an increase in blood pressure takes place to the extent that ET-1 is produced therefrom by enzyme-catalysed cleavage of Big-ET-1. As a measurement of the enzyme-inhibiting action of the substances, their inhibitory action on the increase in blood pressure induced by infusion of Big-ET-1 was determined.
Rats (Sprague-Dawley, CRLD=Charles River) were anaesthetised with 1 ml/kg Rompun/Ketavet 1:1. A pressure transducer (Statham) was inserted into the carotid artery to measure blood pressure. One jugular vein was cannulated for administering the substance, and the other for administering Big-ET-1. After a 20-minute equilibration phase, the rats were administered the corresponding test substance of Formula I at a dose of as a rule 10 μmol/kg (if not stated otherwise), or a vehicle. Five minutes later, 0.5 nmol/kg Big-ET-1 was infused over a period of one minute. The systolic (SAP=systolic arterial pressure) and the diastolic (DAP=diastolic arterial pressure) blood pressure and the heart rate were each measured before administration of the substance, then immediately before administration of Big-ET and in each case every five minutes over a period of 30 minutes after Big-ET administration using the pressure transducer in known manner. The maximum Big-ET-induced increase in blood pressure and the maximum lowering of heart rate were calculated from the measured values as the difference between the value measured at the moment of maximum development of the Big-ET action (typically after 5 min.) and the value measured before Big-ET infusion. Furthermore, the integral of the blood pressure curve under the influence of Big-ET-1 was determined over 30 minutes (AUC=area under the curve).
The percentage inhibition of the maximum Big-ET-1 effect on the systolic arterial blood pressure (SAP) after i.v. administration of the test substances compared with administration of a vehicle is set forth in the following Table 3a:
Data given in table 3a as negative values indicate an inhibitory effect.

[4] = system: TUNEL positive cells in heart, liver and kidney; experiment: Adriamycin toxicity: determination of anti-apoptotic activity (TUNEL staining); format: in vivo, Wistar rats; conditions: adriamycin alone, 3 x 5 mg/kg i.p. (cumulative 15 mg/kg), vehicle minipump; day 5; ± SEM
Method: 2. Adriamycin Toxicity: Determination of Anti-Apoptotic Activity
Wistar rats, weighing 200-250 g, were anesthetized with chloral hydrate, 400 mg/kg, and Alzet osmotic minipumps (2 ML1), were implanted subcutaneously (=s.c.). The pumps had been filled with either vehicle or solution containing compounds of the invention at the appropriate concentration and primed prior to implantation. Animals subsequently received adriamycin at three equal daily doses of 5 mg/kg i.p. on days 1, 2 and 3. Rats were euthanized 5 days after the first injection of adriamycin and transcardially perfused with a solution containing 4% paraformaldehyde in phosphate buffer. The heart, liver and kidneys were subsequently removed and embedded in parafin.
TUNEL staining: For terminal deoxynucleotide transferase-mediated dUTP nick end-label (TUNEL) based histological analysis, organs were post-fixed for 5 days at 4° C. and paraffin-embedded. TUNEL staining was performed on 10 μm thick paraffin sections using the ApopTag Peroxidase kit (S 7100, Oncor Appligene, Heidelberg, Germany) according to the manufacturer's instructions. Briefly, after pretreatment with proteinase K and quenching of endogenous peroxidase, sections were incubated in equilibration buffer followed by working strength TdT enzyme (incorporating digoxigenin labeled dUTP nucleotides to free 3′-OH DNA termini), (1 hr, 37° C.). Sections were incubated in stop/wash buffer (30 min, 37° C.), then with anti-digoxigenin-peroxidase conjugate (30 min) followed by DAB substrate (Sigma, Deisenhofen, Germany) and lightly counterstained with methylgreen.
Wistar rats were administered adriamycin at the cumulative dose of 15 mg/kg i.p. The test substance of Example 4 was administered s.c. at the doses of 20, 50 or 100 mg/kg and day by means of Alzet osmotic minipumps over 5 days. Animals were euthanized and transcardially perfused 5 days after the first injection of adriamycin and the heart, kidney and liver were processed for TUNEL staining. Densities of TUNEL positive cells were determined as described in the methods. Results for each organ (heart, liver, kidney) were measured as mean densities of TUNEL positive cells ±SEM for the control groups and the different test groups (20, 50 or 100 mg/kg and day of test compound of Example 4) and listed in table 8 below.
Comparisons between groups were performed by means of Student's t test (**P<0.01; ***P<0.001 compared to vehicle treated rats).

COCCNC(=O)CC(CC1(C(=O)N[C@H]2CCc3ccccc3N(CC(=O)O)C2=O)CCCC1)C(=O)O (mixture of isomers) [Example 16]
IC50 [1]: 20 nM
IC50 [2]: 15 nM
change in vivo at 10 µmol/kg [3]: -45%

O=C(O)CN1C(=O)[C@@H](NC(=O)C2(CC(CC(=O)NC3CCCCNC3=O)C(=O)O)CCCC2)CCc2ccccc21 (mixture of isomers) [Example 17]
IC50 [1]: < 1 nM
IC50 [2]: 24 nM
change in vivo at 10 µmol/kg [3]: -46%

COc1ccc(C(=O)CNC(=O)CC(CC2(C(=O)N[C@H]3CCc4ccccc4N(CC(=O)O)C3=O)CCCC2)C(=O)O)cc1 (mixture of isomers) [Example 20]
IC50 [1]: 12.9 nM
IC50 [2]: 36.3 nM
change in vivo at 10 µmol/kg [3]: -67%

O=C(O)CN1C(=O)[C@@H](NC(=O)C2(CC(CC(=O)NCC3CC3)C(=O)O)CCCC2)CCc2ccccc21 (mixture of isomers) [Example 23]
IC50 [1]: 10.6 nM
IC50 [2]: 17.3 nM
change in vivo at 10 µmol/kg [3]: -40%

COc1ccc(CNC(=O)CC(CC2(C(=O)N[C@H]3CCc4ccccc4N(CC(=O)O)C3=O)CCCC2)C(=O)O)cc1 (mixture of isomers) [Example 24]
IC50 [1]: 11.1 nM
IC50 [2]: 27 nM
change in vivo at 10 µmol/kg [3]: -54%

CCN(CCCCN)C(=O)CC(CC1(C(=O)NC2CCc3ccccc3N(CC(=O)O)C2=O)CCCC1)C(=O)O (racemic) [Example 76, 4-[(4-aminobutyl)(ethyl)amino]-2-{[1-({[1-(carboxymethyl)-2-oxo-2,3,4,5-tetrahydro-1H-1-benzazepin-3-yl]amino}carbonyl)cyclopentyl]methyl}-4-oxobutanoic acid]
IC50 [1]: 10 nM
IC50 [2]: 4 nM
change in vivo at 10 µmol/kg [3]: -93%

COc1cccc2c1C(=O)c1c(O)c3c(c(O)c1C2=O)C[C@@](O)(C(=O)CO)C[C@@H]3O[C@H]1C[C@H](N)[C@H](O)[C@H](C)O1 [Adriamycin, adriamycin, reference compound]
TUNEL positive cells, Heart [4]: 5.417 ± 0.146 cells/mm3 × 102
TUNEL positive cells, Kidney [4]: 9.438 ± 0.198 cells/mm3 × 102
TUNEL positive cells, Liver [4]: 10.420 ± 0.275 cells/mm3 × 102

CN(C)CCN(C)C(=O)CC(CC1(C(=O)NC2CCc3ccccc3N(CC(=O)O)C2=O)CCCC1)C(=O)O (stereo not drawn) [Example 59, 2-{[1-({[1-(carboxymethyl)-2-oxo-2,3,4,5-tetrahydro-1H-1-benzazepin-3-yl]amino}carbonyl)cyclopentyl]methyl}-4-[[2-(dimethylamino)ethyl](methyl)amino]-4-oxobutanoic acid]
IC50 [1]: 12 nM
IC50 [2]: 4 nM
change in vivo at 10 µmol/kg [3]: -98%
